This test concerns female Swiss mice. Description: Analgesic activity, writhing test (2-phenyl-1,4-benzoquinone as nociceptive agent). It is filed as in vivo. The note with it: Mus musculus, po, 1 h, Table 1, oral route one hour before i.p. 0.02% 2-phenyl 1-4 benzoquinone, dose reducing writhes by 50%. As for the experimental part: The studies of analgesic activity for these compounds have been carried out over 2,178 mice by using the "writhing test" method. 2-Phenylbenzoquinone was used as nociceptive agent and the material under test was administered by the oral route. In all the cases the ED50, ED16 and ED84 (minimum dose for each product which reduces the writhes by 50, 16 and 84% respectively) were calculated, as well as the 95% confidence limits for the ED50. The oral acute toxicity study (LD50 determination) has been performed using 770 Swiss mice (half males and half females) weighing 18-22 g.
A slight modification of the method described by Hendershot and Forshait J. Pharmacol. Exp. Ther. 125, 237 (1959) which employs as nociceptive agent a 0.02% hydroalcoholic solution of 2-phenyl 1-4 benzoquinone, was used. 0.2 ml Of this solution was administered by the i.p. route at a constant temperature of 37° C. The administration of this substance produced in the animals abdominal writhes which were easy to count. The animals used were female Swiss mice of weight 20 + 2 g. […] The value of ED50 was calculated according to the method of Litchfield and Wilcoxon J. Pharmacol. Exp. Ther. 99, 96 (1949).

In the case of `CC(C)Cc1ccc(C(C)C(=O)O)cc1` (stereo not shown) [2(4-isobutylphenyl) propionic acid, reference compound], the ED50 worked out at 4.21 mg/kg.
